# From patent US11814367B2, “Inhibitors of glycogen synthase 1 (GYS1) and methods of use thereof” (Maze Therapeutics, Inc., priority 2021, dated 2023)
# How the values were obtained:
# [1] = test system: hGYS1 enzyme / glycogen synthesis in HeLa cells; assay: GYS1 cell based assay (glycogen synthesis, Glucose-glo); design: species or system human; conditions: Homo sapiens, 24 h incubation, 20 mM glucose, geometric mean of at least 2 runs
# In short: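 HeLa cells starved 24 h in medium containing only 1× Glutamax were plated onto compound in medium with 20 mM glucose (1% DMSO final) for 24 h, 37 °C, 5% CO2. Acid lysates were Tris-quenched, glucoamylase-digested (pH 5.3, 1 h, 37 °C) and read by Glucose-glo luminescence. IC50 came from Hill fits, as geometric mean of ≥2 runs.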
# [2] = target: hGYS1 enzyme (recombinant hGYS1/GN1 protein) (Homo sapiens (Human), UniProt P13807); assay: GYS1 coupled enzyme assay (PK/LDH); format: biochemical; conditions: hGYS1/GN1 50 nM, UDP-Glucose 0.8 mM, G6P 1 mM; geometric mean of at least 2 runs
# hGYS1 enzyme (recombinant hGYS1/GN1 protein), sequence (P13807 whole entry): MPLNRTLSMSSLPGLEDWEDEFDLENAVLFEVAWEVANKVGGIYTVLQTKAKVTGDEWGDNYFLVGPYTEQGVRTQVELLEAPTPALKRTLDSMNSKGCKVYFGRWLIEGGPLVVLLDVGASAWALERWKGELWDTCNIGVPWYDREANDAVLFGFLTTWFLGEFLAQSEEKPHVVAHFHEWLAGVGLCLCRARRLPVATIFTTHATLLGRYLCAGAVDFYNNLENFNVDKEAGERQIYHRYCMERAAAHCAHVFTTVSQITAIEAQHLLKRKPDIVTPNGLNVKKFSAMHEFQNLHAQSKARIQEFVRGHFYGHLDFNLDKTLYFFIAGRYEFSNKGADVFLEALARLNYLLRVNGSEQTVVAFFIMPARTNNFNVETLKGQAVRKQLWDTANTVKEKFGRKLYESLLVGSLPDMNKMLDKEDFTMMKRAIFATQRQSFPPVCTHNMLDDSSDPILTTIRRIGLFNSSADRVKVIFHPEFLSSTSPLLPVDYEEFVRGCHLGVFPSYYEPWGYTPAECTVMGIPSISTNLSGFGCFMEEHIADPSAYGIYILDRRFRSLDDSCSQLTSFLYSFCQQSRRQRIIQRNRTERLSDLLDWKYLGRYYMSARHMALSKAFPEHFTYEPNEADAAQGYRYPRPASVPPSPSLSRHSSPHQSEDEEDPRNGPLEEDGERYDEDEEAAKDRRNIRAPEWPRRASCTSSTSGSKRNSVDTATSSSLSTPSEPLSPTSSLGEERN
# hGYS1 enzyme (recombinant hGYS1/GN1 protein), sequence (P46976 whole entry partner): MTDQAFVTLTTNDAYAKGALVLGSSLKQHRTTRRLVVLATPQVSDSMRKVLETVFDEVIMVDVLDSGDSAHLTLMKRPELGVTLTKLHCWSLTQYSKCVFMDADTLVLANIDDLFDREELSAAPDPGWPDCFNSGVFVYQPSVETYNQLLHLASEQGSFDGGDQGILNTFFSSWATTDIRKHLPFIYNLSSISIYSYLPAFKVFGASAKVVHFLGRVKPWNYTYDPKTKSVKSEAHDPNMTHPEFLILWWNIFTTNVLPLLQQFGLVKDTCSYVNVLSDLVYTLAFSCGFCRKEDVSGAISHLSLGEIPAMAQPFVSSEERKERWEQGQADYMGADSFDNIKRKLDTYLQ
# [3] = target: hGYS2 enzyme (recombinant hGYS2/GN1 protein) (Homo sapiens (Human), UniProt P54840); assay: GYS2 coupled enzyme assay (PK/LDH); format: biochemical; conditions: geometric mean of at least 2 assay runs on separate days, read-out: Avg_IC50
# hGYS2 enzyme (recombinant hGYS2/GN1 protein), sequence (P54840 whole entry): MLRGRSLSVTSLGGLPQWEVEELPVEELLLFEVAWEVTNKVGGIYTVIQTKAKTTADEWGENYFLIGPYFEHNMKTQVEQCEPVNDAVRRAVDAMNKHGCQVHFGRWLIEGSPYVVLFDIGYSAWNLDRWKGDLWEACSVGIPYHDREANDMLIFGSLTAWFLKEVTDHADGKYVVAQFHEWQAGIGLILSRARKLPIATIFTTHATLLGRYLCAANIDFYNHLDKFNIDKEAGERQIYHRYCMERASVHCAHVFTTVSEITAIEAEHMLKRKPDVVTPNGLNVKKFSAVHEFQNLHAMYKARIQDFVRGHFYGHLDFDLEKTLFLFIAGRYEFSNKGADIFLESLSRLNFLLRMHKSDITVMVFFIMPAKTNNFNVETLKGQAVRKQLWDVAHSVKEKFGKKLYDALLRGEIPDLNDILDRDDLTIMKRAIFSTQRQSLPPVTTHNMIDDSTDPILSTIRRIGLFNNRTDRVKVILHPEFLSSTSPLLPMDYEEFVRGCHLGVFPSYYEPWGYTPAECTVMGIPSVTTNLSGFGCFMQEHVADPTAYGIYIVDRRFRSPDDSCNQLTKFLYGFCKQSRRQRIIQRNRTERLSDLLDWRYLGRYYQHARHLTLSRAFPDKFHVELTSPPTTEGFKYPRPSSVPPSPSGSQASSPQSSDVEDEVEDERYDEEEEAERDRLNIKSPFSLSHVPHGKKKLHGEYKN
# hGYS2 enzyme (recombinant hGYS2/GN1 protein), sequence (P46976 whole entry partner): as the sequence (P46976 whole entry partner) above
# In short: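 Continuous PK/LDH-coupled readout of NADH loss at 340 nm over 10 min, with 200 nM hGYS2/GN1 and 2 mM each of UDP-glucose, glucose-6-phosphate and PEP, in 50 mM Tris pH 7.5 with 0.2% glycogen and 2.5% DMSO. Slopes were normalized to controls and IC50s fit to a Hill curve from duplicates.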
Structure (SMILES),"IC50 ([1]; HeLa, 24 h) [nM]",IC50 [2] [nM],IC50 [3] [nM],IC50 [1] [nM]
"Cc1nc2ccccc2n1CC(=O)N1C[C@H](F)C[C@H]1C(=O)N[C@@H](c1ccccc1)c1ccc(C2(C)CC2)c(F)n1 [Compound 593, (2S,4R)-4-fluoro-N-[(S)-[6-fluoro-5-(1-methylcyclopropyl)pyridin-2-yl](phenyl)methyl]-1-[2-(2-methyl-1H-1,3-benzodiazol-1-yl)acetyl]pyrrolidine-2-carboxamide]",280,19,> 100000,
"CC1(c2ccc([C@@H](NC(=O)[C@@H]3C[C@@H](F)CN3C(=O)Cn3nnc4ccccc43)c3ccccc3)nc2F)CC1 [Compound 594, (2S,4R)-1-[2-(1H-1,2,3-benzotriazol-1-yl)acetyl]-4-fluoro-N-[(S)-[6-fluoro-5-(1-methylcyclopropyl)pyridin-2-yl](phenyl)methyl] pyrrolidine-2-carboxamide]",720,50,> 100000,
"CC1(c2ccc([C@@H](NC(=O)[C@@H]3C[C@@H](F)CN3C(=O)Cn3cnc4ccccc43)c3ccccc3)nc2F)CC1 [Compound 595, (2S,4R)-1-[2-(1H-1,3-benzodiazol-1-yl)acetyl]-4-fluoro-N-[(S)-[6-fluoro-5-(1-methylcyclopropyl)pyridin-2-yl](phenyl)methyl] pyrrolidine-2-carboxamide]",460,25,> 100000,
"Cn1nc(CC(=O)N2C[C@H](F)C[C@H]2C(=O)N[C@@H](c2ccccc2)c2ccc(C3(C)CC3)c(F)n2)c2ccccc21 [Compound 596, (2S,4R)-4-fluoro-N-[(S)-[6-fluoro-5-(1-methylcyclopropyl)pyridin-2-yl](phenyl)methyl]-1-[2-(1-methyl-1H-indazol-3-yl)acetyl]pyrrolidine-2-carboxamide]",280,20,> 96700,
"CN1C(=O)C(CC(=O)N2C[C@H](F)C[C@H]2C(=O)N[C@@H](c2ccccc2)c2ccc(C3(C)CC3)c(F)n2)c2ccccc21 (stereo partly drawn) [Compound 597, (2S,4R)-4-fluoro-N-[(S)-[6-fluoro-5-(1-methylcyclopropyl)pyridin-2-yl](phenyl)methyl]-1-[2-(1-methyl-2-oxo-2,3-dihydro-1H-indol-3-yl)acetyl]pyrrolidine-2-carboxamide]",1320,64,> 100000,
"CC1(c2ccc([C@@H](NC(=O)[C@@H]3C[C@@H](F)CN3C(=O)Cn3c(=O)[nH]c4ccccc43)c3ccccc3)nc2F)CC1 [Compound 599, (2S,4R)-4-fluoro-N-[(S)-[6-fluoro-5-(1-methylcyclopropyl)pyridin-2-yl](phenyl)methyl]-1-[2-(2-oxo-2,3-dihydro-1H-1,3-benzodiazol-1-yl)acetyl]pyrrolidine-2-carboxamide]",720,40,> 100000,
"Cn1c(=O)n(CC(=O)N2C[C@H](F)C[C@H]2C(=O)N[C@@H](c2ccccc2)c2ccc(C3(C)CC3)c(F)n2)c2ccccc21 [Compound 600, (2S,4R)-4-fluoro-N-[(S)-[6-fluoro-5-(1-methylcyclopropyl)pyridin-2-yl](phenyl)methyl]-1-[2-(3-methyl-2-oxo-2,3-dihydro-1H-1,3-benzodiazol-1-yl)acetyl]pyrrolidine-2-carboxamide]",620,36,> 100000,
"Cc1cc([C@@H](NC(=O)[C@@H]2C[C@@H](F)CN2C(=O)Cc2nnc(C(F)F)o2)c2ccccc2)ncc1C(C)C [Compound 602, (2S,4R)-1-(2-(5-(difluoromethyl)-1,3,4-oxadiazol-2-yl)acetyl)-4-fluoro-N—((S)-(5-isopropyl-4-methylpyridin-2-yl)(phenyl)methyl)pyrrolidine-2-carboxamide]",760,92,> 100000,
"CC(C)c1c(F)cc([C@@H](NC(=O)[C@@H]2C[C@@H](F)CN2S(=O)(=O)Cc2cnn[nH]2)c2ccccc2)cc1F [Compound 659, (2S,4R)-1-(((1H-1,2,3-triazol-5-yl)methyl)sulfonyl)-N—((S)-(3,5-difluoro-4-isopropylphenyl)(phenyl)methyl)-4-fluoropyrrolidine-2-carboxamide]",,331,17500,4350
"CC(C)c1c(F)cc([C@@H](NC(=O)[C@@H]2C[C@@H](F)CN2C(=O)Cn2cnnn2)c2ccccc2)cc1F [Compound 669, (2S,4R)-N-[(S)-[3,5-difluoro-4-(propan-2-yl)phenyl](phenyl)methyl]-4-fluoro-1-[2-(1H-1,2,3,4-tetrazol-1-yl)acetyl]pyrrolidine-2-carboxamide]",470,40,> 100000,
"Cc1cc([C@@H](NC(=O)[C@@H]2C[C@@H](F)CN2C(=O)Cc2cnn[nH]2)c2ccccc2)ccc1C(C)C [Compound 670, (2S,4R)-4-fluoro-N-[(S)-[3-methyl-4-(propan-2-yl)phenyl](phenyl)methyl]-1-[2-(1H-1,2,3-triazol-5-yl)acetyl]pyrrolidine-2-carboxamide]",660,71,> 100000,
"CC(C)c1ccc([C@@H](NC(=O)[C@@H]2C[C@@H](F)CN2C(=O)Cc2cnn[nH]2)c2ccccc2)cc1Cl [Compound 672, (2S,4R)-N-[(S)-[3-chloro-4-(propan-2-yl)phenyl](phenyl)methyl]-4-fluoro-1-[2-(1H-1,2,3-triazol-5-yl)acetyl]pyrrolidine-2-carboxamide]",1220,82,> 100000,
"CC(C)c1ccc([C@@H](NC(=O)[C@@H]2C[C@@H](F)CN2C(=O)Cc2cnn[nH]2)c2ccccc2)cc1C(F)F [Compound 679, (2S,4R)-N-[(S)-[3-(difluoromethyl)-4-(propan-2-yl)phenyl](phenyl)methyl]-4-fluoro-1-[2-(1H-1,2,3-triazol-5-yl)acetyl]pyrrolidine-2-carboxamide]",8490,577,> 100000,
"CC1(c2ccc([C@@H](NC(=O)[C@@H]3C[C@@H](F)CN3C(=O)Cc3cnn[nH]3)c3ccccc3)cc2F)CCC1 [Compound 681, (2S,4R)-4-fluoro-N-[(S)-[3-fluoro-4-(1-methylcyclobutyl)phenyl](phenyl)methyl]-1-[2-(1H-1,2,3-triazol-5-yl)acetyl]pyrrolidine-2-carboxamide]",430,30,> 100000,
"CC(C)(C)c1ccc([C@@H](NC(=O)[C@@H]2C[C@@H](F)CN2C(=O)Cc2cnn[nH]2)c2ccccc2)cc1F [Compound 685, (2S,4R)-N-[(S)-(4-tert-butyl-3-fluorophenyl)(phenyl)methyl]-4-fluoro-1-[2-(1H-1,2,3-triazol-5-yl)acetyl]pyrrolidine-2-carboxamide]",2710,204,> 100000,
"CC(C)c1ccc([C@@H](NC(=O)[C@@H]2C[C@@H](F)CN2C(=O)Cc2cnn[nH]2)c2cccc(-c3ccn[nH]3)c2)nc1F [Compound 686, (2S,4R)-1-(2-(1H-1,2,3-triazol-5-yl)acetyl)-N—((S)-(3-(1H-pyrazol-5-yl)phenyl)(6-fluoro-5-isopropylpyridin-2-yl)methyl)-4-fluoropyrrolidine-2-carboxamide]",640,13,> 100000,
"CC(C)c1ccc([C@@H](NC(=O)[C@@H]2C[C@@H](F)CN2C(=O)Cc2nn(C)c(=O)n2C)c2ccccc2)nc1 [Compound 710, (2S,4R)-1-[2-(1,4-dimethyl-5-oxo-4,5-dihydro-1H-1,2,4-triazol-3-yl)acetyl]-4-fluoro-N-[(S)-phenyl[5-(propan-2-yl)pyridin-2-yl]methyl]pyrrolidine-2-carboxamide]",2340,146,> 100000,
"CC(C)c1ccc([C@@H](NC(=O)[C@@H]2C[C@@H](F)CN2C(=O)Cn2cc(N3CCC3)nn2)c2ccccc2)nc1 [Compound 711, (2S,4R)-1-{2-[4-(azetidin-1-yl)-1H-1,2,3-triazol-1-yl]acetyl}-4-fluoro-N-[(S)-phenyl[5-(propan-2-yl)pyridin-2-yl]methyl]pyrrolidine-2-carboxamide]",630,30,> 100000,
"Cn1c(CC(=O)N2C[C@H](F)C[C@H]2C(=O)N[C@@H](c2ccccc2)c2ccc(C3CC3)c(F)n2)noc1=O [Compound 719, (2S,4R)-N-[(S)-(5-cyclopropyl-6-fluoropyridin-2-yl)(phenyl)methyl]-4-fluoro-1-[2-(4-methyl-5-oxo-4,5-dihydro-1,2,4-oxadiazol-3-yl)acetyl]pyrrolidine-2-carboxamide]",2220,254,> 100000,
"Cn1nc(CC(=O)N2C[C@H](F)C[C@H]2C(=O)N[C@@H](c2ccccc2)c2ccc(C3CC3)c(F)n2)n(C)c1=O [Compound 722, (2S,4R)-N-[(S)-(5-cyclopropyl-6-fluoropyridin-2-yl)(phenyl)methyl]-1-[2-(1,4-dimethyl-5-oxo-4,5-dihydro-1H-1,2,4-triazol-3-yl)acetyl]-4-fluoropyrrolidine-2-carboxamide]",1450,85,> 100000,
